Assay results published in patent publication US8956868B2, “Induced pluripotent stem cells produced with a connexin inhibitor and a TGF-β signaling inhibitor” (LSIP, LLC, priority 2010, dated 2015).

Test system: cardiomyocytes derived from neonatal mouse ventricles
Assay: Reprogramming of cardiomyocytes into iPS cells (selective culture in mouse ES medium)
Type: cell-based
Conditions: ES medium containing both 10 μM SB-431542 and 100 nM siRNA Cx43 (combination); after about two weeks; cardiomyocytes seeded at 2×10^5 cells
Protocol: Two-day-old neonatal C57BL/6 or C57BL/6-Tg (CAG-EGFP) mouse hearts including ventricles were minced into approximately 2-mm cubes with dissecting scissors by a conventional method. They were treated with 0.2% collagenase (type II; Worthington Biochemical Corp. U.S.; dissolved in PBS) to dissociate cardiomyocytes. The dissociated cardiomyocytes were centrifuged, and incubated for 45 minutes in DMEM containing 10% FBS at 37° C. with 5% CO2. After the incubation, the supernatant was further incubated under the same conditions. This process was repeated four times. Thus, fibroblasts were removed, and the cardiomyocytes were isolated,
The cardiomyocytes were seeded at 2×10^5 cells in a 6-cm dish, and cultured in the above DMEM medium. After culturing for 1 week, the medium used for culturing the cardiomyocytes was switched from the above DMEM medium to mouse ES media containing 15% FBS and also containing either a TGF-β receptor inhibitor SB-431542 (10 μM; Tocris, USA), siRNA Cx43 (100 nM), or both compounds, to select the reprogrammed cells. […]

Compound | iPS cell colonies obtained
NC(=O)c1ccc(-c2nc(-c3ccc4c(c3)OCO4)c(-c3ccccn3)[nH]2)cc1 [SB-431542] | Two
siRNA Cx43: mouse Cx43 siRNA; sense 5′-CAAUUCCUCCUGCCGCAATT-3′, antisense 5′-UUGCGGCAGGAGGAAUUGTT-3′ (sense CAAUUCCUCCUGCCGCAATT; antisense UUGCGGCAGGAGGAAUUGTT; chemistry not given here) | Two
